Measurements from PubChem BioAssay AID1918958 (Molecular Pharmacology Branch, DTP, NCI, 2023).
Where “and” joins values, the source holds several entries; their conditions need not be identical. Identical values can stand only once.

Test system: NCI-H196 complex spheroid viability
Test: Anticancer human tumor NCI-H196 cell line growth inhibition [LSD1];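 further: spheroids exposed to agents for 7 days before readout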;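 on viability, T/C: 100% = DMSO vehicle control viability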
Settings: for viability, T/C: stronger effect = lower value
Method in brief: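 Drug combinations with the LSD1 inhibitor iadademstat tested on tumor cells co-cultured as spheroids with endothelial cells and mesenchymal stem cells. Concentrations descended in half-log increments from clinical Cmax or 10 microM.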

[1] = curve of first compound, second compound 0.1 µM
[2] = curve of first compound, second compound 0.316 µM
[3] = curve of first compound, second compound 1 µM
[4] = curve of first compound, second compound 3.16 µM
[5] = curve of first compound, second compound 10 µM
[6] = second compound 0.1 µM, first compound 0.0316 µM
[7] = second compound 0.1 µM, first compound 0.1 µM
[8] = second compound 0.316 µM, first compound 0.0316 µM
[9] = second compound 0.316 µM, first compound 0.1 µM
[10] = second compound 1 µM, first compound 0.0316 µM
[11] = second compound 1 µM, first compound 0.1 µM
[12] = second compound 3.16 µM, first compound 0.0316 µM
[13] = second compound 3.16 µM, first compound 0.1 µM
[14] = second compound 10 µM, first compound 0.0316 µM
[15] = second compound 10 µM, first compound 0.1 µM
[16] = second compound 0.1 µM, first compound 0.316 µM
[17] = second compound 0.1 µM, first compound 1 µM
[18] = second compound 0.1 µM, first compound 3.16 µM
[19] = second compound 0.1 µM, first compound 10 µM
[20] = second compound 0.316 µM, first compound 0.316 µM
[21] = second compound 0.316 µM, first compound 1 µM
[22] = second compound 0.316 µM, first compound 3.16 µM
[23] = second compound 0.316 µM, first compound 10 µM
[24] = second compound 1 µM, first compound 0.316 µM
[25] = second compound 1 µM, first compound 1 µM
[26] = second compound 1 µM, first compound 3.16 µM
[27] = second compound 1 µM, first compound 10 µM
[28] = second compound 3.16 µM, first compound 0.316 µM
[29] = second compound 3.16 µM, first compound 1 µM
[30] = second compound 3.16 µM, first compound 3.16 µM
[31] = second compound 3.16 µM, first compound 10 µM
[32] = second compound 10 µM, first compound 0.316 µM
[33] = second compound 10 µM, first compound 1 µM
[34] = second compound 10 µM, first compound 3.16 µM
[35] = second compound 10 µM, first compound 10 µM

`CC(C)CC(NC(=O)CNC(=O)c1cc(Cl)ccc1Cl)B1OC(=O)CC(CC(=O)O)(C(=O)O)O1` (stereo unspecified) + NC1CCC(NC2CC2c2ccccc2)CC1 showed an IC50 [1] of 18.6 nM, an IC50 [2] of 19.5 nM and an IC50 [3] of 18.7 nM. The IC50 [4] was 21.5 nM, the IC50 [5] was 20.1 nM and the viability, T/C (second compound 0.1 µM, first compound 0.000316 µM) was 107%. For the same compound, the viability, T/C (second compound 0.1 µM, first compound 0.001 µM) was 109%, the viability, T/C (second compound 0.1 µM, first compound 0.00316 µM) was 102% and the viability, T/C (second compound 0.1 µM, first compound 0.01 µM) was 78%. For the same compound, the viability, T/C [6] was 26.1%, the viability, T/C [7] was 8.24% and the viability, T/C (second compound 0.316 µM, first compound 0.000316 µM) was 106%. For the same compound, the viability, T/C (second compound 0.316 µM, first compound 0.001 µM) was 106%, the viability, T/C (second compound 0.316 µM, first compound 0.00316 µM) was 101% and the viability, T/C (second compound 0.316 µM, first compound 0.01 µM) was 78.5%. It also gave a viability, T/C [8] of 29.5%, a viability, T/C [9] of 8.69% and a viability, T/C (second compound 1 µM, first compound 0.000316 µM) of 103%. It also gave a viability, T/C (second compound 1 µM, first compound 0.001 µM) of 105%, a viability, T/C (second compound 1 µM, first compound 0.00316 µM) of 120% and a viability, T/C (second compound 1 µM, first compound 0.01 µM) of 71.9%. The viability, T/C [10] was 31.4%, the viability, T/C [11] was 7.57% and the viability, T/C (second compound 3.16 µM, first compound 0.000316 µM) was 99.5%. For the same compound, the viability, T/C (second compound 3.16 µM, first compound 0.001 µM) was 107%, the viability, T/C (second compound 3.16 µM, first compound 0.00316 µM) was 102% and the viability, T/C (second compound 3.16 µM, first compound 0.01 µM) was 85.8%. The viability, T/C [12] was 31.9%, the viability, T/C [13] was 9.23% and the viability, T/C (second compound 10 µM, first compound 0.000316 µM) was 102%. The viability, T/C (second compound 10 µM, first compound 0.001 µM) was 104%, the viability, T/C (second compound 10 µM, first compound 0.00316 µM) was 105% and the viability, T/C (second compound 10 µM, first compound 0.01 µM) was 75.7%. The viability, T/C [14] was 33% and the viability, T/C [15] was 6.12%.

In the case of `NC1CCC(NC2CC2c2ccccc2)CC1` (stereo unspecified), the viability, T/C (compound 0.316 µM) is reported as 93.8% and 93%, the viability, T/C (compound 1 µM) is reported as 96.9% [middle of 25 runs] and the viability, T/C (compound 3.16 µM) is reported as 97.9% [middle of 25 runs]. The viability, T/C (compound 10 µM) was 97.5% [middle of 23 runs] and the IC50 (compound alone, run of 02/15/2022) was greater than 10000 nM.

In the case of `O=C(C=Cn1cnc(-c2cc(C(F)(F)F)cc(C(F)(F)F)c2)n1)NNc1cnccn1`, the viability, T/C (compound 0.00316 µM) is reported as 28.4% and 33.1%, the viability, T/C (compound 0.01 µM) is reported as 31% and 30.9% and the viability, T/C (compound 0.0316 µM) is reported as 19.2% and 19.6%. For the same compound, the viability, T/C (compound 0.1 µM) was 17.7% and 14.5%, the viability, T/C (compound 0.316 µM) was 13.8% and 10.2% and the viability, T/C (compound 1 µM) was 7.27% and 6.31%. It also gave an IC50 (curve of compound) of less than 3.16 nM.

In the case of `Cn1ncnc1C1c2n[nH]c(=O)c3cc(F)cc(c23)NC1c1ccc(F)cc1` (stereo unspecified), the viability, T/C (compound 0.000316 µM) is reported as 107% and 97.8%, the viability, T/C (compound 0.001 µM) is reported as 104% and 106% and the viability, T/C (compound 0.00316 µM) is reported as 99.1% and 105%. The viability, T/C (compound 0.01 µM) was 101% and 100%, the viability, T/C (compound 0.0316 µM) was 96.3% and 98.4% and the viability, T/C (compound 0.1 µM) was 96.8% and 95.6%. The IC50 (curve of compound) was greater than 100 nM.

With `COc1ccc([C@@H](O)c2cc(-c3ncnc4cc(N5CCOCC5)ccc34)c(F)cc2Cl)nn1` + NC1CC1c1ccc(-c2cccc(O)c2)cc1 the IC50 [1] was greater than 10000 nM, the IC50 [2] was greater than 10000 nM and the IC50 [3] was greater than 10000 nM. For the same compound, the IC50 [4] was greater than 10000 nM, the IC50 [5] was 6480 nM and the viability, T/C [6] was 106%. The viability, T/C [7] was 98.6%, the viability, T/C [16] was 79.1% and the viability, T/C [17] was 68.4%. It also gave a viability, T/C [18] of 64.2%, a viability, T/C [19] of 52% and a viability, T/C [8] of 92%. For the same compound, the viability, T/C [9] was 90%, the viability, T/C [20] was 82.7% and the viability, T/C [21] was 71%. For the same compound, the viability, T/C [22] was 60.7%, the viability, T/C [23] was 50% and the viability, T/C [10] was 102%. For the same compound, the viability, T/C [11] was 94.7%, the viability, T/C [24] was 90% and the viability, T/C [25] was 69.4%. It also gave a viability, T/C [26] of 62.2%, a viability, T/C [27] of 50.1% and a viability, T/C [12] of 94.9%. For the same compound, the viability, T/C [13] was 105%, the viability, T/C [28] was 90.8% and the viability, T/C [29] was 68.2%. It also gave a viability, T/C [30] of 59.9%, a viability, T/C [31] of 48.2% and a viability, T/C [14] of 103%. It also gave a viability, T/C [15] of 100%, a viability, T/C [32] of 86.2% and a viability, T/C [33] of 72.8%. It also gave a viability, T/C [34] of 59.2% and a viability, T/C [35] of 44.7%.

Compound `CC(C)c1c(-c2ccccc2)nc2c(C#N)c[nH]n2c1=O` + NC1CC1c1ccc(-c2cccc(O)c2)cc1 has an IC50 [1] greater than 10000 nM, an IC50 [2] greater than 10000 nM and an IC50 [3] greater than 10000 nM. The IC50 [4] was greater than 10000 nM, the IC50 [5] was greater than 10000 nM and the viability, T/C [6] was 87.2%. The viability, T/C [7] was 96.8%, the viability, T/C [16] was 88.4% and the viability, T/C [17] was 83.5%. The viability, T/C [18] was 93.1%, the viability, T/C [19] was 90.1% and the viability, T/C [8] was 92.7%. For the same compound, the viability, T/C [9] was 102%, the viability, T/C [20] was 98% and the viability, T/C [21] was 89.4%. It also gave a viability, T/C [22] of 94.6%, a viability, T/C [23] of 88.2% and a viability, T/C [10] of 96.7%. The viability, T/C [11] was 95%, the viability, T/C [24] was 91.1% and the viability, T/C [25] was 96.7%. It also gave a viability, T/C [26] of 104%, a viability, T/C [27] of 79.8% and a viability, T/C [12] of 101%. For the same compound, the viability, T/C [13] was 88.5%, the viability, T/C [28] was 95.3% and the viability, T/C [29] was 96.2%. It also gave a viability, T/C [30] of 91.6%, a viability, T/C [31] of 94.1% and a viability, T/C [14] of 103%. It also gave a viability, T/C [15] of 92.6%, a viability, T/C [32] of 93.1% and a viability, T/C [33] of 88.4%. It also gave a viability, T/C [34] of 86.3% and a viability, T/C [35] of 88%.

With `CCc1c2c(nc3ccc(O)cc13)-c1cc3c(c(=O)n1C2)COC(=O)[C@]3(O)CC` the viability, T/C (compound 0.000949 µM) was 99.5% and 104%, the viability, T/C (compound 0.003 µM) was 103% and 96.6% and the viability, T/C (compound 0.00949 µM) was 52.9% and 47.5%. The viability, T/C (compound 0.03 µM) was 2.96% and 3.28%, the viability, T/C (compound 0.0949 µM) was 1.29% and 0.86% and the viability, T/C (compound 0.3 µM) was 1.52% and 0.88%. The IC50 (curve of compound) was 10.1 nM and 8.88 nM.
